Laboratory results published in paper PMC4708624, “The metabolism and de-bromination of bromotyrosine in vivo” (Free Radical Biology & Medicine, 2016).
Where two headings read alike, the source gives them in different places.

What was measured:
[1] = rats; for Molar percentage of the excreted metabolites in 24-h urine (% of infused [D3]bromotyrosine) / Total amounts (nmole) excreted in 24-h urine: intraperitoneal injection of 500 nmole [D3]bromotyrosine
Description: ^13C-Labeled internal standard (5 ng) was added to 20 µl of rat urine and diluted to 1 ml of total volume with 0.1 % (v/v) TFA/water (pH 5.0). The samples were extracted using LC18 reverse phase column, as described above. Bromotyrosine and tyrosine were derivatized with ethyl heptafluorobutyrate and silylated with tert-butyldimethylsilyl, as described, [17], [18]. Derivatized samples were dried under nitrogen, and redissolved in 20 µl of n-undecane. Samples were applied to a GC equipped with a 15-m DB-1701 (J&W Scientific, Folsom, CA) capillary column (0.25-mm internal diameter, […]), interfaced with a mass spectrometer (Trio 1000; Fisons Instruments, Beverly, MA). The ion source and interface temperatures were set at 200 and 320 °C, respectively. Samples were analyzed in negative-ion chemical ionization mode with ammonia as the reagent gas, using 1 µl of each sample for injection. The initial column temperature was maintained at 150 °C for 1 min increasing to 300 °C at 20 °C/min. Ions were monitored at 489, 492, and 498 mass units for authentic, [D3] and [^13C9]bromotyrosine, respectively (Table 1). For measurement of tyrosine, samples were monitored at 407, 410 and 415 m/z for authentic, [D3]tyrosine and [^13C9]tyrosine, respectively. Concentrations were calculated by ratio to known ^13C9-labeled internal standards.
^13C-Labeled internal standard (5 ng) was added to 20 µl of rat urine and diluted to 1 ml with 0.1 % (v/v) TFA/water (pH 5.0). The samples were extracted using LC18 reverse-phase column as described above. The samples were derivatized to the pentafluorobenzyl ester by the addition of 20 µl of di-isopropyl ethylamine in acetonitrile and […] of 10 % (v/v) pentafluorobenzyl bromide in acetonitrile for 1 h at room temperature (21–23 °C), dried under nitrogen, and redissolved in […] of n-undecane for GC/MS analysis, [14]. The GC/MS set up was as described above, and ions were monitored at 409, 412, and 417 mass units for authentic, [D3] and [^13C8]bromo-HPA, respectively, with single-ion monitoring (Table 1). For measuring HPA, samples were monitored at 331, 334, and 339 mass units for authentic, [D3] and [^13C8]HPA, respectively. The concentrations were calculated from the known ^13C8-labeled internal standards.
Male Sprague-Dawley rats (n=3 in each group) were given a single intraperitoneal injection of [D3]bromotyrosine (0.50 µmol). The animals were then transferred to standard metabolic cages, and urine samples were collected for 24 h. The levels of deuterated bromotyrosine, tyrosine, bromo-HPA, and HPA were measured in the collected urine samples, as described above.

[2] = design: method as in PMID 17686770; conditions: deuterium-labeled metabolites after infusion of deuterium-labeled chlorotyrosine ref 9; cited from earlier work
[3] = target: T1, Iodotyrosine dehalogenase 1 (DEHAL1) (Homo sapiens, UniProt Q6PHW0); assay: Inhibition of DEHAL1 deiodinase activity (radioiodide formation from [125I]iodotyrosine); type: biochemical; conditions: 0.01–100 μM, 60 min at 37 °C, NADPH, dithiothreitol
T1 construct: made in house; host or cells: HEK293 cells transfected with DEHAL1 cDNA in pcDNA3.1; used as cell lysate
T1 sequence (Q6PHW0 1-289): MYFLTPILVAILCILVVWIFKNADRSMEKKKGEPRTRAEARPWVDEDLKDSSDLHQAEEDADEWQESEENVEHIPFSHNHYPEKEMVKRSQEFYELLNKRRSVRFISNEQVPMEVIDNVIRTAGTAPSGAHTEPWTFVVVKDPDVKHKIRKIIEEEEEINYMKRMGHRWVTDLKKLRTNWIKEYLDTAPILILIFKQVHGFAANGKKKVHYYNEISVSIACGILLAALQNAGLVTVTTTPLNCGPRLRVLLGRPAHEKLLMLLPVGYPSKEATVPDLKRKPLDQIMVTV
Description: (§1) Iodotyrosine dehalogenase 1 (DEHAL1) was obtained from HEK293 cells transfected with DEHAL1 cDNA, using a pcDNA3.1 expression vector [9], [19]. To determine whether bromotyrosine, di-bromotyrosine or bromo-HPA interact with iodotyrosine dehalogenase, deiodinase activity was measured based on radioiodide formation from [125I]iodotyrosine. Incubation mixtures contained [125I]iodotyrosine (∼100,000 cpm mixed with 0.1 μM unlabeled iodotyrosine), DEHAL1 enzyme, and varying amounts of iodotyrosine, bromotyrosine, di-bromotyrosine, bromp-HPA and tyrosine (0.01–100 μM final concentration) in 100 μl of PBS containing NADPH (100 μM), EDTA (2 mM), and dithiothreitol (10 mM), [19]. Mixtures were incubated in duplicate for 60 min at 37 °C, and the reactions were stopped by addition of 0.9 ml of 10% acetic acid on ice. The radioiodide in the mixture was separated from the remaining [125I]iodotyrosine with ion exchange chromatography on Dowex columns. The columns were washed with 10 % acetic acid and eluted with 8 ml of 1 mM ammonia solution. Blank incubations without enzyme were used to correct for non-enzymatic deiodination. To determine whether bromotyrosine or di-bromotyrosine could act as a substrate of DEHAL1, the brominated or iodinated tyrosine derivatives (1 μM) were incubated with DEHAL1 in 100 μl of PBS containing NADPH (100 μM), EDTA (2 mM), and dithiothreitol (10 mM). Mixtures were then incubated in duplicate for 60 min at 37 °C, and the reaction was stopped by addition of 1 ml of 10 % acetic acid on ice. Substrate levels were measured using HPLC as described. Cell lysates from HEK293 cells transfected with empty pcDNA3.1 plasmid were used as control. In experiments where di-bromotyrosine, or di-iodotyrosine was used as substrate, concentrations of mono-bromotyrosine and mono-iodotyrosine were measured as a product of de-halogenation.

[4] = target: T1, Iodotyrosine dehalogenase 1 (DEHAL1); assay: Dehalogenation of halogenated tyrosines as substrates of DEHAL1 (HPLC); type: biochemical; conditions: for Formation of mono-halogenated tyrosine as product of de-halogenation of the di-halogenated substrate by DEHAL1: di-iodotyrosine or di-bromotyrosine 1 μM as substrate; for Formation of mono-halogenated tyrosine as product of de-halogenation of the di-halogenated substrate by DEHAL1 / Substrate converted by DEHAL1: 60 min at 37 °C; for Substrate converted by DEHAL1: substrate 1 μM, NADPH 100 μM, dithiothreitol 10 mM
Description: as §1

[5] = Incubation of bromo-HPA with rat liver homogenates; type: in vitro ADME; conditions: data not shown
[6] = target: T1, Iodotyrosine dehalogenase 1 (DEHAL1); design: method as in PMID 17686770; conditions: previous report ref 9; cited from earlier work
[7] = Identification of urinary metabolites of di-bromotyrosine in vivo (full scan GC/MS); design: species or system Sprague-Dawley rats; conditions: rats, intraperitoneal 30 µmol, 24 h urine, compared with tyrosine injected animals
Description: A similar method used by Ohshima et al. was used for identification of urinary metabolites of di-bromotyrosine. […] Urine was collected in metabolic cages for 24 h. Urine samples were acidified to pH 1.0 with HCl and extracted with an equivalent volume of ethyl acetate.

HepG2 cells = conditions: 24 h with 250 nmoles [D3]bromotyrosine (25 µM, 10 ml)
Description: HepG2 cells (ECACC, Wiltshire, UK) were maintained in MEM (minimum Eagle's medium) supplemented with 10% fetal calf serum. Monolayer HepG2 cells were plated in 175 cm^3 vented tissue culture flasks until 70% confluent, when they were incubated with [D3]bromotyrosine (final concentration 25 µM). 24 h after incubation with [D3]bromotyrosine, cells were washed two times with PBS and were detached from the flask using a cell scraper. Detached cells were washed and re-suspended in 2 ml of PBS. Cell suspensions were subjected to protein precipitation by adding 1 ml of ice-cold chloroform/methanol (2:1, v/v) solution. After centrifugation (1000×g for 20 min), protein precipitates were washed with methanol and lyophilized under vacuum for assessment of protein-bound [D3]bromotyrosine and [D3]tyrosine as described [9], [17], [18]. […] The samples were then derivatized with ethyl heptafluorobutyrate and silylated with tert-butyldimethylsilyl, and monitored for ion masses of 492, 498, 410, 415 for [D3]bromotyrosine, [^13C9]bromotyrosine, [D3]tyrosine and [^13C9]tyrosine, respectively (Table 1) using negative-ion chemical ionization GC/MS [9], [17], [18]. […] All data are expressed as mean±standard error.

[8] = Endogenous bromination of HPA: urine monitoring after intraperitoneal [D6]HPA; type: in vivo; conditions: healthy rats, intraperitoneal injection of [D6]HPA, data not shown
Text: It is not known, whether or not, bromo-HPA is exclusively derived from the metabolism of bromotyrosine. […] Such reaction may occur for bromotyrosine as well, and needs to be explored in future investigations. Likewise, we previously reported that nitro-HPA is not exclusively derived from nitrotyrosine metabolism, and it is mainly formed by nitration of HPA in both humans and rats, [29]. To determine whether or not bromo-HPA could be formed by endogenous bromination of HPA in healthy rats, deuterium-labeled HPA ([D6]HPA) was synthesized and injected into healthy rats as described. The formation of deuterated bromo-HPA was then monitored in urine samples.

O=C(O)Cc1ccc(O)cc1 [HPA, 4-hydroxyphenylacetic acid]
Urinary excretion rate relative to un-metabolized bromotyrosine ([1]; deuterium-labeled metabolites, 500 nmole [D3]bromotyrosine): 10.7 fold | Urinary excretion rate relative to un-metabolized chlorotyrosine [2]: 35.6 fold

[2H]c1cc(O)c([2H])c([2H])c1CC(=O)O [[D3]HPA, [D3]4-hydroxyphenylacetic acid]
Molar percentage of the excreted metabolites in 24-h urine (% of infused [D3]bromotyrosine) [1]: 1.33±0.26% | Total amounts (nmole) excreted in 24-h urine [1]: 6.66 ± 1.33 nmol | Molar percentage of the excreted metabolites in 24-h urine (% of infused [D3]bromotyrosine) ([1]; listed as [D3]4-hydroxyphenylacetic acid): ~ 1.3%

O=C(O)Cc1ccc(O)c(Br)c1 [bromo-HPA, 3-bromo-4-hydroxyphenylacetic acid]
Inhibition of DEHAL1-induced deiodinase activity [3]: Neither tyrosine nor bromo-HPA showed the ability to inhibit deiodination | Formation of de-brominated products on incubation with DEHAL1 ([4]; data not shown): not associated with formation of de-brominated products | Formation of de-brominated products on incubation with rat liver homogenates [5]: not associated with formation of de-brominated products

N[C@@H](Cc1ccc(O)c(Br)c1)C(=O)O [bromotyrosine, 3-bromotyrosine]
Inhibition of DEHAL1-induced deiodinase activity [3]: could inhibit DEHAL1-induced deiodinase activity in a concentration-dependent manner | Formation of mono-halogenated tyrosine as product of de-halogenation of the di-halogenated substrate by DEHAL1 [4]: 3% | Substrate converted by DEHAL1 [4]: 18%

O=C(O)Cc1ccc(O)c(Cl)c1 [chloro-HPA, 3-chloro-4-hydroxyphenylacetic acid]
Urinary excretion rate relative to un-metabolized chlorotyrosine [2]: 3.3 fold

N[C@@H](Cc1ccc(O)c(Cl)c1)C(=O)O [chlorotyrosine, 3-chlorotyrosine]
De-chlorination by DEHAL1 in vitro [6]: unable to show a significant de-chlorination

N[C@@H](Cc1cc(Br)c(O)c(Br)c1)C(=O)O [di-bromotyrosine, 3,5-di-bromotyrosine]
Inhibition of DEHAL1-induced deiodinase activity [3]: could inhibit DEHAL1-induced deiodinase activity in a concentration-dependent manner | Substrate converted by DEHAL1 [4]: 4% | Urinary metabolites identified [7]: di-bromo-HPA and mono-bromo-HPA

N[C@@H](Cc1cc(I)c(O)c(I)c1)C(=O)O [di-iodotyrosine, reference compound]
Substrate converted by DEHAL1 [4]: 70%

N[C@@H](Cc1ccc(O)c(I)c1)C(=O)O [iodotyrosine, reference compound]
Formation of mono-halogenated tyrosine as product of de-halogenation of the di-halogenated substrate by DEHAL1 [4]: 7% | Substrate converted by DEHAL1 [4]: 83%

N[C@@H](Cc1ccc(O)cc1)C(=O)O [tyrosine]
Inhibition of DEHAL1-induced deiodinase activity [3]: Neither tyrosine nor bromo-HPA showed the ability to inhibit deiodination

[D3]tyrosine
Molar percentage of the excreted metabolites in 24-h urine (% of infused [D3]bromotyrosine) [1]: Undetectable | Total amounts (nmole) excreted in 24-h urine [1]: Undetectable | [D3]tyrosine detectable in cellular proteins (HepG2 cells): 6.68 ± 0.52 nmol

[D5]bromo-HPA
Detection of deuterated bromo-HPA in urine [8]: unable to detect

deuterated 3-bromo-4-hydroxyphenylacetic acid [[D3]Bromo-HPA]
Molar percentage of the excreted metabolites in 24-h urine (% of infused [D3]bromotyrosine) [1]: 0.43±0.04% | Total amounts (nmole) excreted in 24-h urine [1]: 2.15 ± 0.21 nmol | Molar percentage of the excreted metabolites in 24-h urine (% of infused [D3]bromotyrosine) ([1]; listed as [D3]bromo-HPA): 0.43±0.04%
